# Results as given in US5942495A, “Antibiotics” (BTG International Limited, priority 1997, dated 1999).
# Read-outs that look alike come from different tables or passages of the source.
# Experiments:
# [1] = tested on: Candida albicans ATCC 262778; experiment: In vitro antifungal activity (growth inhibition, turbidimetric, liquid Sabouraud medium); assay type: cell-based; conditions: for IC50 (concentration inhibiting growth of fungi by 50%): 24 hours at 30° C., liquid Sabouraud medium
# Procedure: The antifungal activity of compounds was determined following the standard for polyene macrolide procedure. The liquid Sabouraud medium was inoculated with 10^4 cells/ml of test organism Candida albicans ATCC 262778 and incubated for 24 hours at 30° C. with the tested antibiotic (serial dilutions). Amphotericin B was used as the reference. Compounds were dissolved in DMF and suitable amounts of the solutions were added to the medium. Turbidimetric method (660 nm) was applied to determine the degree of growth inhibition. The concentration of antibiotic at which the growth of fungi was inhibited by 50% was determined from the dose response curve. The obtained IC50 value characterized antifungal activity of the compound.
# [2] = In vitro toxicity (haemolysis of human erythrocytes); assay type: cell-based; conditions: human, erythrocytes, 30 minutes at 37° C., read-out: EH50 (concentration at which 50% of hemolysis occurred)
# Procedure: (§1) Toxicity of compounds in vitro against animal cells was determined using standard for polyene macrolides procedure, by the determination of the degree of haemolysis of human erythrocytes. Human erythrocytes isolated from fresh, citrated human blood were washed twice with cold saline. The cells were diluted 250 times with saline and equilibrated for 30 minutes at 37° C. Samples of erythrocytes were incubated with various concentrations of antibiotics (the base solution in DMF) for 30 minutes at 37° C. After centrifugation the lysis of erythrocytes was assessed by determination of the haemoglobin released to the solution. Optical density of the supernatant was measured at […]. The results were expressed by EH50 value, as concentration of antibiotic at which 50% of hemolysis occurred. The values of EH50 were read from a curve relating the degree of hemolysis with antibiotic dose.
# [3] = Solubility; assay type: physicochemical
# [4] = tested on: human erythrocytes; experiment: In vitro toxicity (haemolysis of human erythrocytes); assay type: cell-based; conditions: 30 minutes at 37° C.
# Procedure: as §1
# [5] = In vivo toxicity, maximum tolerated dose (MTD); conditions: mouse, in vivo, Balb/c mice
# Procedure: (§2) In vivo toxicity was determined for methyl ester of N-methyl-N-D-fructosylamphotericin B L-aspartate as the maximum tolerated dose (MTD), and as the acute toxicity (LD50). To determine MTD dose the compound was dissolved in 5% solution of glucose, and administered intravenously and intraperitonealy to Balb/c mice in single and multiple doses.
# [6] = tested on: Balb/c mice; experiment: In vivo toxicity, maximum tolerated dose (MTD); conditions: intraperitoneal 100 mg/kg for 5 days, 20 days of observation
# Procedure: as §2
# [7] = Acute toxicity (LD50); conditions: mouse, in vivo, iv
# Procedure: (§3) Various doses of the tested compound, and for comparison, amphotericin B in form of Fungizone, dissolved in 5% glucose were given intravenously to the animals. The administered volume of the solution was 0.5 ml. 0.5 ml of 5% solution of glucose was administered to mice as a control. Every dose of both preparations was administered to 5 mice. […] Next, the animals were killed, and some serum indexes were determined.
# [8] = tested on: Swiss Webster female mice; experiment: Serum indexes after acute toxicity study; assay type: in vivo; conditions: in comparison with the control (5% glucose), after 7 days
# Procedure: as §3
# [9] = tested on: Candida albicans; experiment: Chemotherapeutic efficacy, systemic murine candidose model; assay type: in vivo; conditions: 840 h, intravenous, twice a day, 5 days, female Swiss Webster mice
# Procedure: Candida albicans was grown overnight in Sabouraud dextrose broth at room temperature. The fungal cells were centrifuged, washed twice with 0.9% solution of sodium chloride, and suspended in physiological salt solution. Female Swiss Webster mice of 25 g weight, were injected intravenously with 10^5 cells of Candida in 0.2 ml of 0.9% sodium chloride solution. Initially, the infection was systemic, but by 2 to 3 days it was localized to the kidneys. Untreated animals usually died between 7 to 14 days post-infection. Three days post-infection, animals were treated intravenously, twice a day, for 5 consecutive days with a 5 to 6 hours interval. Preparation was administered as a solution in 5% glucose. […] After this time, the surviving animals were sacrificed, their kidneys were removed, homogenized in sterile water, and the homogenate was placed on Sabouraud dextrose agar, and the grown colonies of Candida were counted. […] The dose, called ED50, was calculated using a method given in J.Hyg.
compound,measurement,setting,value
N-methyl-N-D-fructosylamphotericin B methyl ester [Example VII],IC50 (concentration inhibiting growth of fungi by 50%),[1],0.42 µg/mL
"COC(=O)[C@H]1[C@@H]2C[C@@H](O[C@@H]3O[C@H](C)[C@@H](O)[C@H](N(C)CC4(O)OC[C@@H](O)[C@@H](O)[C@@H]4O)[C@@H]3O)/C=C/C=C/C=C/C=C/C=C/C=C/C=C/[C@H](C)[C@@H](O)[C@@H](C)[C@H](C)OC(=O)C[C@H](O)C[C@H](O)CC[C@@H](O)[C@H](O)C[C@H](O)C[C@](O)(C[C@@H]1O)O2 (single isomer, unassigned) [Example I, N-methyl-N-D-fructosylamphotericin B methyl ester]",IC50 (concentration inhibiting growth of fungi by 50%),[1],0.12 µg/mL
same,HC50 at 0.5 h,[2],> 350 µg/mL
same,solubility,"[3]; under conditions of the haemolysis experiment, read-out: solubility limit (insoluble above)",≤ 350 µg/mL
N-methyl-N-D-fructosylvacidin methyl ester [Example IV],IC50 (concentration inhibiting growth of fungi by 50%),[1],0.01 µg/mL
same,EH50 (concentration at which 50% of hemolysis occurred),[4],170 µg/mL
"COC(=O)[C@H]1[C@@H]2C[C@@H](O[C@@H]3O[C@H](C)[C@@H](O)[C@H](N(C)CC4(O)OC[C@@H](O)[C@@H](O)[C@@H]4O)[C@@H]3O)/C=C/C=C/C=C/C=C/C=C/C=C/C=C/[C@H](C)[C@@H](O)[C@@H](C)[C@H](C)OC(=O)C[C@H](O)C[C@H](O)CC[C@@H](O)[C@H](O)C[C@H](O)C[C@](O)(C[C@@H]1O)O2 (stereo partly drawn) [Example X, methyl ester of N-methyl-N-D-fructosylamphotericin B L-aspartate]",IC50,"[1]; ATCC262778, 24 h, read-out: IC50 (concentration inhibiting growth of fungi by 50%)",0.125 µg/mL
same,EH50 (concentration at which 50% of hemolysis occurred),[4]; 30 min,above 350 μg/ml
same,MTD,"[5]; ip, intraperitoneal, for 5 days, read-out: maximum multiple tolerated dose",> 100 mg/kg
same,MTD,"[5]; ip, intraperitoneal, single dose, in 5% glucose, read-out: maximum single tolerated dose (MTD)",> 200 mg/kg
same,MTD,"[5]; iv, single dose, in 5% glucose, read-out: maximum single tolerated dose (MTD)",100 mg/kg
same,toxic effects,[6],toxic effects were not observed
same,LD50 at 168 h,[7],400 mg/kg
same,level of aspartate aminotransferase,[8],No increased level
same,level of creatinine,[8],No increased level
same,ED50,"[9]; 5 weeks observation, read-out: ED50 based on the survival",2.3 mg/kg
same,ED50,"[9]; clearance of Candida from kidneys, read-out: ED50 based on the kidneys clearance",6 mg/kg
same,"solubility in N,N-dimethylformamide, dimethylsulphoxide and 5% water solution of glucose","[3]; DMF, DMSO, 5% aqueous glucose",soluble
same,solubility in water,[3]; water,very well soluble in water
N-methyl-N-D-fructosylnystatin methyl ester [Example III],IC50 (concentration inhibiting growth of fungi by 50%),[1],6.8 µg/mL
same,EH50 (concentration at which 50% of hemolysis occurred),[4],above 300 μg/ml
N-methyl-N-D-fructosylcandidin D methyl ester [Example V],IC50 (concentration inhibiting growth of fungi by 50%),[1],0.01 µg/mL
same,EH50 (concentration at which 50% of hemolysis occurred),[4],≈ 180 μg/ml
N-methyl-N-fructosyltrychomycin methyl ester [Example VI],IC50 (concentration inhibiting growth of fungi by 50%),[1],0.013 µg/mL
same,EH50 (concentration at which 50% of hemolysis occurred),[4],≈ 165 μg/ml
N-methyl-N-D-fructosylamphotericin B methyl ester [Example IX],IC50 (concentration inhibiting growth of fungi by 50%),[1],6.0 µg/mL
"C[C@@H]1[C@H](O)[C@@H](C)/C=C/C=C/C=C/C=C/C=C/C=C/C=C/[C@H](O[C@@H]2O[C@H](C)[C@@H](O)[C@H](N)[C@@H]2O)C[C@@H]2O[C@](O)(C[C@@H](O)C[C@@H](O)[C@H](O)CC[C@@H](O)C[C@@H](O)CC(=O)O[C@H]1C)C[C@H](O)[C@H]2C(=O)O [amphotericin B, reference compound]",HC50 at 0.5 h,[2],1.5 µg/mL
"COC(=O)[C@H]1[C@@H]2C[C@@H](O[C@@H]3O[C@H](C)[C@@H](O)[C@H](N(C)CC4(O)OC[C@@H](O)[C@@H](O)[C@@H]4O)[C@@H]3O)/C=C/C=C/C=C/C=C/C=C/C=C/C=C/[C@H](C)[C@@H](O)[C@@H](C)[C@H](C)OC(=O)C[C@H](O)C[C@H](O)CC[C@@H](O)[C@H](O)C[C@H](O)C[C@](O)(C[C@@H]1O)O2 (single isomer, unassigned) [Example VIII, N-methyl-N-D-fructosylamphotericin B methyl ester]",IC50 (concentration inhibiting growth of fungi by 50%),[1],0.42 µg/mL
same,EH50 (concentration at which 50% of hemolysis occurred),[4]; 30 min,above 200 μg/ml
N-methyl-N-D-fructosylcandidin methyl ester [Example II],IC50 (concentration inhibiting growth of fungi by 50%),[1],0.75 µg/mL
same,EH50 (concentration at which 50% of hemolysis occurred),[4],above 300 μg/ml
